Measurements: US9750817B2, “Amphotericin B derivatives” (priority 2015, dated 2017)
In brackets after ≈: the same amount, converted by molar mass. Several values for one entry are separate records, joined by “and”; a condition that tells them apart may be missing. Identical values can stand only once.

Key:
[1] = Solubility in double-distilled water; format: physicochemical; settings: double-distilled water
Method: Physical characteristics of AMB derivatives and of AMB were tested, including solubility.

[2] = tested on: C. albicans CBS 562; experiment: In-vitro time-kill study; format: cell-based, Candida albicans; settings: 2-fold above the MIC, over 2 hours, 30° C.
Method: In time-kill studies, C. albicans CBS 562 was grown overnight from a single colony in 50 ml of liquid YPD medium (composed of 1% (w/v) yeast extract, Difco, 2% w/v peptone, Difco, and 2% w/v dextrose, Merck) at 30° C. On the next day, the starter was diluted 1:100 in the same medium and grown to an optical density at 600 nanometers (OD600 nm) of 0.5-0.6. Then, cells were counted and diluted to 10^6 cells/ml in YPD. Compound 6 and amphotericin B (AMB) were added at concentrations 2-fold above the MIC determined for this strain (2 and 0.5 μg/ml, respectively) and shaken at 30° C. At different time points (0, 15 min, 30 min, 1 h, 2 h) samples were removed, diluted and plated on YPD agar (2% agar) plates. Colonies were counted after incubation for 24 h at 30° C. Control measurements included untreated C. albicans cells and cells treated with AMB. All time-kill curve studies were conducted in duplicate and in three independent experiments.

[3] = Pharmacokinetics upon single intravenous administration; format: in vivo, mice; parameters: ke: unit not given here; settings: mouse serum, IV bolus; AMB 1 mg/kg, Compound 6 5 mg/kg
Method: AMB and Compound 6 solution in saline were administrated intravenously (IV) to groups of mice at a dose of 1 and 5 mg/kg body weight, respectively. The mice received an IV bolus via the tail vein. Mice were bled over a 48 h period at the following time points: 0, 5, 15 and 30 minutes and 1, 2, 6, 12, 24 and 48 h post-dosing (3 mice per time point). Bleeding was conducted using a facial vein technique into sterile Eppendorf tubes. Whole blood samples of 150 μl were collected at each time point, stored for 30 min at room temperature for clotting and centrifuged at 10,000 RPM for 10 minutes until serum separated. The serum samples were stored at −20° C.
The concentration of Compound 6 in the serum was measured by HPLC as follows: UltiMate® 3000 system (Dionex) was used equipped with 3000 pump, VWD-3000 UV-Vis detector and Chromeleon® 6.80 software. The column used was LiChroCART® 250×4.6 mm Purospher® STAR (5 μm) C-18 RP (reverse phase). Chromatographic conditions: flow: 1.0 ml/min, linear water (buffer A)/acetonitrile (ACN) (buffer B) gradient (buffer A—100% water, 0.1% TFA; buffer B—100% ACN, 0.1% TFA).
200 μl of methanol was added to 100 μl of serum sample and vortexed for 20 seconds, stored for 30 min at room temperature (22° C.), then centrifuged at 14,000 RPM for 10 minutes. The supernatant was filtered through a 0.22 μm filter and aliquots of 100 μl were analyzed by HPLC. AMB and Compound 6 were detected at a wavelength of 407 nm.
The pharmacokinetic graphs depicting drug concentration over time are shown in FIGS. 8A-8B (over 24 hours and 120 minutes respectively) and the calculated PK values are shown in Table 6 below.

[4] = tested on: ICR mice; experiment: In vivo toxicity, intravenous injection; settings: for LD50 / Maximum Dose: tail vein
Method: In-vivo toxicity was determined in mice using 6 week old female ICR mice (n=6). Different concentrations of each formulation were injected intravenously through the tail vein, 0.2 ml per mouse, until death was observed. PAD-AMB conjugates were prepared in sterile saline solution and were filtered through 0.45-micrometer pore-size cellulose acetate sterile filters prior to injection.

[5] = tested on: C. albicans (CBS562); experiment: MIC of compound 6, AMB and FMOC-6; format: cell-based, Candida albicans
Method: Efficacy was evaluated by measuring minimum inhibitory concentration (MIC) and minimum fungicidal concentration (MFC) values for fungal isolates. Testing of isolates was performed according to the Clinical & Laboratory Standards Institute (CLSI) method. (CLSI. 2008. M27-A3 Reference method for broth dilution antifungal susceptibility testing of yeasts; Approved Standard—3rd edition. Clinical and Laboratory Standards Institute, Wayne). RPMI MOPS media was used throughout the experiment as growth and dilution media. Spores and yeast cells were harvested in 0.05% Tween from 24-48 h and cultures were grown in rich yeast extract-agar-glucose (YAG) medium (composed of: 0.5% w/v yeast extract, 1% w/v glucose, 10 millimolar (mM) MgCl2, supplemented with 0.1% v/v trace elements solution, and 0.2% v/v vitamin mix). The spores and the yeast cells were counted and diluted to a final concentration of 2.5×10^4 per ml. A stock solution of 5 mg/ml was prepared in dimethylsulfoxide for free AMB. Compounds 4 and 6 were prepared in sterile saline. Double dilutions of each drug were performed in 100 μL volume of RPMI-MOPS in 96 well plates beginning with a final concentration of 32 micrograms (μg)/well of each drug to 0.06 μg/well. 2500 spores or yeast cells were added to each well. Results were recorded 48 h post incubation at 37° C. […] The MFC was defined as the lowest drug concentration that yielded three or fewer colonies (i.e. 99% of the inoculum was killed).
In addition, the amine protected equivalent of compound 6 in which the amine of compound 6 was protected with an FMOC group was tested (designated FMOC-6) to determine MIC versus AMB and versus compound 6 against A. fumigatus (Af 293) and C. albicans (CBS562).

[6] = tested on: mouse embryonic fibroblasts (MEFs); experiment: MTT viability assay in mouse embryonic fibroblasts; format: cell-based
Method: Reference is made to FIG. 4C. Mouse embryonic fibroblasts were used in this example. 1×10^4 mouse embryonic fibroblasts (MEFs) per well were seeded in 96-well plates and incubated at 37° C. After 24 h the media was replaced with 100 μl culture medium containing serial dilutions of AMB, compounds 4 or 6, or left untreated. After 24 h, the media was replaced by fresh media (100 μl per well) containing 1 mg/ml MTT (3-(4,5-Dimethylthiazol-2-yl)-2,5-Diphenyltetrazolium Bromide, ((Biological Industries, Israel)) reagent and the cells were incubated for an additional 3 h at 37° C. MTT-formazan crystals were dissolved by the addition of 100 μl per well of extraction solution (20% SDS, 50% N,N-dimethyl formamide (DMF), pH=4.7) and incubation for 16 h at 37° C. Absorbance at 570 nm was recorded on a Biotek Synergy HT plate reader.
The results were expressed as the percentage of living cells relative to the untreated control and are depicted in FIG. 4C. The inhibition concentration (IC50) value is the concentration of the compound which inhibited cell growth by 50%.

With C[C@@H]1[C@H](O)[C@@H](C)/C=C/C=C/C=C/C=C/C=C/C=C/C=C/[C@H](O[C@@H]2O[C@H](C)[C@@H](O)[C@H](N)[C@@H]2O)C[C@@H]2O[C@](O)(C[C@@H](O)C[C@@H](O)[C@H](O)CC[C@@H](O)C[C@@H](O)CC(=O)O[C@H]1C)C[C@H](O)[C@H]2C(=O)O [AMB, Amphotericin B] the Solubility [1] was <0.001 mg/mL, the “time-kill activity (fungal presence)” value [2] was “reducing the fungal presence” and the AUC0-24 [3] was 63.983 µg·h/mL. The CL [3] was 0.250 mL/h, the MRT0-24 [3] was 9.664 h and the Vd [3] was 0.006 L. The t1/2 [3] was 15.96 h and 15.964 h, the LD50 ([4]; female ICR mice, intravenous) was 1.2 mg/kg and the “Maximum Dose” value ([4]; female ICR mice, intravenous) was 1.1 mg/kg. For the same molecule, the “outcome at twice the LD50” value ([4]; mice injected at twice the LD50) was “die instantaneously”, the maximum tolerated dose ([4]; mouse) was “about 1 mg/kg body weight per day” and the MIC [5] was 0.25 mg/L. The “IC50 (concentration which inhibited cell growth by 50%)” value ([6]; 24 h exposure, MTT) was 6.6 mg/L.
For COC(=O)C1C(O)CC2(O)CC(O)CC(O)C(O)CCC(O)CC(O)CC(=O)OC(C)C(C)C(O)C(C)C=CC=CC=CC=CC=CC=CC=CC(OC3OC(C)C(O)C(NC(=O)CCOCCOCCOCCOCCOCCOCCOCCOCCN)C3O)CC1O2 (stereo not drawn) [Compound 6, amphotericin B amide, methyl ester-PEG(8)-amine], the Solubility [1] was 0.7 mg/mL (≈ 514 µM), the “time-kill activity (fungal presence)” value [2] was “reducing the fungal presence” and the AUC0-24 [3] was 421.234 µg·h/mL. It also gave a CL [3] of 0.508 mL/h, an MRT0-24 [3] of 5.431 h and a Vd [3] of 0.002 L. For the same molecule, the ke [3] was 0.220, the t1/2 [3] was 3.153 h and the “mouse LD50 fold higher than AMB” value ([4]; female ICR mice, intravenous) was ≥ 40 fold. For the same molecule, the “signs of toxicity at the highest injectable doses” value ([4]; female ICR mice, intravenous) was “did not show any signs of toxicity”, the LD50 ([4]; female ICR mice, intravenous) was “not reached” and the “Maximum Dose” value ([4]; female ICR mice, intravenous) was 42 mg/kg. The MIC [5] was 2 mg/L and the “times less toxic than AMB” value ([6]; from IC50) was “at least 600 times”.
